We go through 17 molecules from ChEMBL document CHEMBL1128140, “Novel indolocarbazole protein kinase c inhibitors with improved biochemical and physicochemical properties” (Bioorg Med Chem Lett, 1995).

Experiment [1] addresses T1, cGMP-dependent protein kinase 1 (Bos taurus, UniProt P00516).
T1 sequence (P00516 whole entry): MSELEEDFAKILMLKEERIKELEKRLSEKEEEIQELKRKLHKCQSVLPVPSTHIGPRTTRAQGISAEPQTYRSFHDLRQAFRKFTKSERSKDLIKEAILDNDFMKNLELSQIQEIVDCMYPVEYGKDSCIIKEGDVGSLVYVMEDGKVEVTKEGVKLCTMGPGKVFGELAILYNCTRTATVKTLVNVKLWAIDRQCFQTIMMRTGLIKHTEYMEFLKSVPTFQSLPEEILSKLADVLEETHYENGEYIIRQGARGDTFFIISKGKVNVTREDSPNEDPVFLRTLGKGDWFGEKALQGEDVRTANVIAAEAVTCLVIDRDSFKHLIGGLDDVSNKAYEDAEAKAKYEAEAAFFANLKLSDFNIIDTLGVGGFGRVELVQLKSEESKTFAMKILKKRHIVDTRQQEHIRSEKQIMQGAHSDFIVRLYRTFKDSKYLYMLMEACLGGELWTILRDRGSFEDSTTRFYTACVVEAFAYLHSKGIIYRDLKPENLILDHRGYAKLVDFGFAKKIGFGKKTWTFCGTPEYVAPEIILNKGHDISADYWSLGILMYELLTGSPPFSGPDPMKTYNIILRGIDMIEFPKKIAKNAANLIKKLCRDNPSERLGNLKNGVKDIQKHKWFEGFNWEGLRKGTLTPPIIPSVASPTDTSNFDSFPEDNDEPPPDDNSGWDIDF
As to the kind of experiment: Tested for inhibition of cGMP-dependent protein kinase from bovine lung.

Another experiment has as its target Protein kinase C (PKC). As to the kind of experiment: Tested for inhibition of protein kinase C from rat brain.
The nature of experiment [2]: Tested for inhibition of catalytic subunit of cAMP-dependent protein kinase from bovine heart.
The target of experiment [3] is Tyrosine-protein kinase Blk (Mus musculus, UniProt P16277). As to the kind of experiment: Tested for inhibition of general tyrosine-specific protein kinase activity from murine B cell lysate. It counts as cell-based.
Tyrosine-protein kinase Blk, sequence (P16277 whole entry): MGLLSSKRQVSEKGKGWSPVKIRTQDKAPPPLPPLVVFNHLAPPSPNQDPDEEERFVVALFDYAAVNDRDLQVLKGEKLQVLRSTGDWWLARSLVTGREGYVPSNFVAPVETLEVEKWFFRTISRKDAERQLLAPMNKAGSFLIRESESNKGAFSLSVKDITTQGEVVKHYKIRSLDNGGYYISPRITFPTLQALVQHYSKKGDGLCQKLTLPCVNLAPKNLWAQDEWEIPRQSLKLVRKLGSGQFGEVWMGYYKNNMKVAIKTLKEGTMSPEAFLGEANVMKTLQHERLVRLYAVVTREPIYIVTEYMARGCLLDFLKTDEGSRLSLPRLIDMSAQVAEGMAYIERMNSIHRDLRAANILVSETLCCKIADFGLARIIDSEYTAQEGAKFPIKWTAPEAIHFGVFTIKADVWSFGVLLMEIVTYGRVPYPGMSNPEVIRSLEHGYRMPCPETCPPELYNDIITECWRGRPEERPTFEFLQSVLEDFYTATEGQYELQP

Take `CN(C)CCCn1c2ccccc2c2c3c(c4c5ccccc5[nH]c4c21)C(=O)NC3`: the 50% inhibitory concentration (IC50) was 420 nM in experiment [1], 230 nM against Protein kinase C (PKC) and above 10000 nM in experiment [2].
The matching figures for `Cn1c2ccccc2c2c3c(c4c5ccccc5n(CCCN)c4c21)CNC3=O`: 220 nM, 32 nM and 750 nM.
With `CN(C)CC(O)Cn1c2ccccc2c2c3c(c4c5ccccc5n(C)c4c21)C(=O)NC3=O` (centres undefined), the 50% inhibitory concentration (IC50) in experiment [1] came to 2100 nM; against Protein kinase C (PKC) it was 21 nM; in experiment [2], 6300 nM.
On to `COc1ccc2c(c1)c1c3c(c4c5ccccc5n(C)c4c1n2CCCC#N)C(=O)NC3=O`, for which the IC50 in experiment [1] was found to be 1000 nM; at Protein kinase C (PKC) it was 5 nM; in experiment [2], 200 nM.
In turn, `CN(C)CCCn1c2ccc(O)cc2c2c3c(c4c5cc(O)ccc5[nH]c4c21)C(=O)NC3` registered an IC50 against Protein kinase C (PKC) of 16 nM.
In the case of `COc1ccc2c(c1)c1c3c(c4c5ccccc5n(C)c4c1n2CC(O)CN(C)C)C(=O)NC3=O` (centres undefined), the IC50 was found to be 4800 nM in experiment [1], 4 nM on Protein kinase C (PKC) and 510 nM in experiment [2].
For the molecule `CN(C)CCCn1c2ccccc2c2c3c(c4c5ccccc5n(C)c4c21)C(=O)NC3`, the IC50 worked out at 870 nM in experiment [1], 45 nM at Protein kinase C (PKC) and 9900 nM in experiment [2].
`COc1ccc2[nH]c3c(c4c(c5c6cc(OC)ccc6n(CCCN(C)C)c35)CNC4=O)c2c1`: the half-maximal inhibitory concentration (IC50) against Protein kinase C (PKC) was 550 nM.
With `COc1ccc2c(c1)c1c3c(c4c5ccccc5n(C)c4c1n2CCC#N)C(=O)NC3=O`, the IC50 in experiment [3] is above 10000 nM; in experiment [1], above 3000 nM; on Protein kinase C (PKC), 2 nM; in experiment [2], 400 nM.
The matching figures for `COc1ccc2c(c1)c1c3c(c4c5ccccc5n(C)c4c1n2CC(O)CN(C)C)C(=O)NC3` (centres undefined): above 10000 nM, 23000 nM, 86 nM and 15000 nM.
As to `CN(C)CC(O)Cn1c2ccccc2c2c3c(c4c5ccccc5n(C)c4c21)C(=O)NC3` (centres undefined), the IC50 in experiment [3] was above 100000 nM; in experiment [1] it was 9400 nM; on Protein kinase C (PKC) it was 30 nM; in experiment [2], 24000 nM.
With `COc1ccc2c(c1)c1c3c(c4c5cc(OC)ccc5n(CCC#N)c4c1n2C)CNC3=O`, the IC50 in experiment [3] is above 10000 nM; in experiment [1] it was 2000 nM; at Protein kinase C (PKC), 56 nM; in experiment [2], 45000 nM.
Molecule `COc1ccc2c(c1)c1c3c(c4c5ccccc5n(CCC#N)c4c1n2C)C(=O)NC3=O` showed an IC50 on Protein kinase C (PKC) of 16 nM.
`Cn1c2ccccc2c2c3c(c4c5ccccc5n(CCC#N)c4c21)C(=O)NC3=O`: the IC50 was 7200 nM in experiment [1], 38 nM against Protein kinase C (PKC) and above 30000 nM in experiment [2].
`Cn1c2ccc(O)cc2c2c3c(c4c5cc(O)ccc5n(CCC#N)c4c21)CNC3=O` yielded an IC50 against Protein kinase C (PKC) of 9 nM.
In the case of `COc1ccc2c(c1)c1c3c(c4c5cc(OC)ccc5n(CCC#N)c4c1n2C)C(=O)NC3=O`, the IC50 on Protein kinase C (PKC) is 6 nM.
`Cn1c2ccccc2c2c3c(c4c5ccccc5n(CCC#N)c4c21)CNC3=O` [GO-6976]: the IC50 at Protein kinase C (PKC) (read-out: IC50) is 20 nM; in experiment [2] it was above 100000 nM.

As usually defined, the IC50 is the concentration that gives 50% inhibition.
